Laboratory results taken from ChEMBL document CHEMBL1201862, “PubChem BioAssay data set” (2004).
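Protocol summary: plate cells (96-well), add compound at 5 concentrations, incubate 48 h, interpolate endpoints linearly. Here, GI50 denotes the concentration required for 50% inhibition of growth.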 Active and inactive are the calls of the source. No stated cut-off is given here; in the data, active = GI50 up to about 1.1 µM and inactive = higher.

Assays:
Assay in all cases: growth of human tumour cells (NCI), 48 h
786-0 = tested on: 786-0
A549 = tested on: A549
ACHN = tested on: ACHN
CCRF-CEM = tested on: CCRF-CEM
COLO 205 = tested on: COLO 205
DMS-114 = tested on: DMS-114
DMS-273 = tested on: DMS-273
EKVX = tested on: EKVX
HCT-116 = tested on: HCT-116
HL-60 = tested on: HL-60
HOP-18 = tested on: HOP-18
HOP-92 = tested on: HOP-92
HT-29 = tested on: HT-29
K562 = tested on: K562
LXFL 529 = tested on: LXFL 529
M14 = tested on: M14
MOLT-4 = tested on: MOLT-4
Malme-3M = tested on: Malme-3M
NCI-H226 = tested on: NCI-H226
NCI-H23 = tested on: NCI-H23
OVCAR-3 = tested on: OVCAR-3
OVCAR-4 = tested on: OVCAR-4
OVCAR-8 = tested on: OVCAR-8
RPMI-8226 = tested on: RPMI-8226
SF-268 = tested on: SF-268
SF-295 = tested on: SF-295
SK-MEL-28 = tested on: SK-MEL-28
SK-OV-3 = tested on: SK-OV-3
SN12C = tested on: SN12C
SNB-19 = tested on: SNB-19
SNB-75 = tested on: SNB-75
SNB-78 = tested on: SNB-78
U-251 = tested on: U-251
UACC-257 = tested on: UACC-257
UO-31 = tested on: UO-31
XF498 = tested on: XF498
DLD-1 = tested on: DLD-1
HCT-15 = tested on: HCT-15
IGROV-1 = tested on: IGROV-1
KM12 = tested on: KM12
LOX IMVI = tested on: LOX IMVI
NCI-H460 = tested on: NCI-H460
NCI-H522 = tested on: NCI-H522
RXF 393 = tested on: RXF 393
SF-539 = tested on: SF-539
SK-MEL-2 = tested on: SK-MEL-2
SK-MEL-5 = tested on: SK-MEL-5
SW-620 = tested on: SW-620
TK-10 = tested on: TK-10
UACC-62 = tested on: UACC-62

Measured: GI50

c1ccc(-c2nc3ccccc3nc2SCc2cccnc2)cc1
inactive: 786-0 > 100 µM | A549 > 100 µM | ACHN > 100 µM | CCRF-CEM > 100 µM | COLO 205 > 100 µM | DMS-114 > 100 µM | DMS-273 > 100 µM | EKVX > 100 µM | HCT-116 > 100 µM | HL-60 > 100 µM | HOP-18 14.4 µM | HOP-92 > 100 µM | HT-29 > 100 µM | K562 > 100 µM | LXFL 529 > 100 µM | M14 > 100 µM | MOLT-4 > 100 µM | Malme-3M > 100 µM | NCI-H226 > 100 µM | NCI-H23 > 100 µM | OVCAR-3 > 100 µM | OVCAR-4 > 100 µM | OVCAR-8 > 100 µM | RPMI-8226 > 100 µM | SF-268 > 100 µM | SF-295 > 100 µM | SK-MEL-28 > 100 µM | SK-OV-3 > 100 µM | SN12C > 100 µM | SNB-19 > 100 µM | SNB-75 > 100 µM | SNB-78 > 100 µM | U-251 > 100 µM | UACC-257 > 100 µM | UO-31 56.6 µM | XF498 > 100 µM

CN(C)CCCNC(=O)N/N=C/c1cccc([N+](=O)[O-])c1
inactive: 786-0 > 100 µM | A549 > 100 µM | ACHN > 100 µM | CCRF-CEM > 100 µM | DLD-1 > 100 µM | DMS-114 > 100 µM | DMS-273 > 100 µM | HCT-116 > 100 µM | HOP-18 > 100 µM | HT-29 > 100 µM | IGROV-1 > 100 µM | K562 > 100 µM | KM12 > 100 µM | LOX IMVI > 100 µM | LXFL 529 > 100 µM | M14 > 100 µM | MOLT-4 > 100 µM | Malme-3M > 100 µM | NCI-H226 > 100 µM | NCI-H23 > 100 µM | NCI-H460 > 100 µM | NCI-H522 > 100 µM | OVCAR-3 > 100 µM | OVCAR-4 > 100 µM | OVCAR-8 > 100 µM | RXF 393 > 100 µM | SF-268 > 100 µM | SF-295 > 100 µM | SF-539 > 100 µM | SK-MEL-28 > 100 µM | SK-MEL-2 > 100 µM | SK-MEL-5 > 100 µM | SK-OV-3 > 100 µM | SN12C > 100 µM | SNB-19 > 100 µM | SNB-75 44 µM | SNB-78 > 100 µM | SW-620 > 100 µM | TK-10 > 100 µM | U-251 > 100 µM | UACC-257 > 100 µM | UACC-62 > 100 µM | XF498 5.93 µM
> 100 µM: HCT-15
